From US20230089073A1 (Carmot Therapeutics, Inc., priority 2021, published 2023) come the findings set out here.

Molecules are shown by their SMILES.

The target in the assay is T1, human GLP-1 receptor (Homo sapiens, UniProt P43220).
T1 construct: expressed in transfected cells
T1 sequence (P43220 24-463): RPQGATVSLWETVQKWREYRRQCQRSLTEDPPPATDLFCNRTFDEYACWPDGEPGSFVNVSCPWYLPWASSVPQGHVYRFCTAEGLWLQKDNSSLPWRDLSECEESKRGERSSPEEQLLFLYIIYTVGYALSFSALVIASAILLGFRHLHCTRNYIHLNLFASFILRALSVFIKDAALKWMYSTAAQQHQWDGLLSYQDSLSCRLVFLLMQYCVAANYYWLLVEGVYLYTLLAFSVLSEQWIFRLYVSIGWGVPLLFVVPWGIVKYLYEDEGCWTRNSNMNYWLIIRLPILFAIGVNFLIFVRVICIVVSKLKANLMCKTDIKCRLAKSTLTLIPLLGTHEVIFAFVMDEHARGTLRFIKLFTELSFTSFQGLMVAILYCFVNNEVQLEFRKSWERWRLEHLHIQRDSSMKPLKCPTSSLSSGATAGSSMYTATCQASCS
Description: GLP-1R cAMP Assay. Format: cell-based. The note with it: cAMP accumulation in CHO cells stably overexpressing the human GLP-1 receptor; 30 min treatment; HitHunter cAMP kit; read-out: EC50. A digest of the protocol:
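Luminescent enzyme-complementation detection of cAMP, read after cell lysis and overnight incubation, with dose-response curve fitting. Stimulation lasted 30 min, using 20-point triplicate dosing on CHO cells (10,000 per well) stably overexpressing human GLP-1R.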
Take `Cc1cc(C(=O)O)cc2c1nc(CN1CCC(Oc3ccnc(COc4ccc(C#N)cc4F)n3)CC1)n2C[C@@H]1CCO1` [Compound 484, 2-{[4-({2-[(4-cyano-2-fluorophenoxy)methyl]pyrimidin-4-yl}oxy)piperidin-1-yl]methyl}-4-methyl-1-{[(2S)-oxetan-2-yl]methyl}-1H-1,3-benzodiazole-6-carboxylic acid]: the 50% effective concentration (EC50) was less than 50 nM.

Turning to `C[C@H]1C[C@@H](Oc2ccnc(COc3ccc(F)cc3F)n2)CCN1Cc1nc2ccc(C(=O)O)cc2n1C[C@@H]1CCO1` [Compound 485, 2-{[(2S,4S)-4-({2-[(2,4-difluorophenoxy)methyl]pyrimidin-4-yl}oxy)-2-methylpiperidin-1-yl]methyl}-1-{[(2S)-oxetan-2-yl]methyl}-1H-1,3-benzodiazole-6-carboxylic acid], the EC50 was less than 50 nM.

On to `N#Cc1ccc(OCc2nccc(O[C@@H]3C[C@H]4CC[C@@H](C3)N4Cc3nc4ccc(C(=O)O)cc4n3C[C@@H]3CCO3)n2)c(F)c1` [Compound 487, 2-{[(1R,3S,5S)-3-({2-[(4-cyano-2-fluorophenoxy)methyl]pyrimidin-4-yl}oxy)-8-azabicyclo[3.2.1]octan-8-yl]methyl}-1-{[(2S)-oxetan-2-yl]methyl}-1H-1,3-benzodiazole-6-carboxylic acid], for which the concentration giving a half-maximal response (EC50) is 50 to 500 nM.

For `C[C@H]1C[C@@H](Oc2ccnc(COc3ccc(Cl)cc3C#N)n2)CCN1Cc1nc2ccc(C(=O)O)cc2n1C[C@@H]1CCO1` [Compound 489, 2-{[(2S,4S)-4-({2-[(4-chloro-2-cyanophenoxy)methyl]pyrimidin-4-yl}oxy)-2-methylpiperidin-1-yl]methyl}-1-{[(2S)-oxetan-2-yl]methyl}-1H-1,3-benzodiazole-6-carboxylic acid], the EC50 is less than 50 nM.

As to `N#Cc1ccc(OCc2cc(OC3CCN(Cc4nc5ccc(C(=O)O)cc5n4C[C@@H]4CCO4)CC3)cnn2)c(F)c1` [Compound 491, 2-{[4-({6-[(4-cyano-2-fluorophenoxy)methyl]pyridazin-4-yl}oxy)piperidin-1-yl]methyl}-1-{[(2S)-oxetan-2-yl]methyl}-1H-1,3-benzodiazole-6-carboxylic acid], the EC50 was less than 50 nM.

`C[C@H]1C[C@@H](Oc2nc(COc3ccc(F)cc3C#N)ncc2F)CCN1Cc1nc2ccc(C(=O)O)cc2n1C[C@@H]1CCO1` [Compound 492, 2-{[(2S,4S)-4-({2-[(2-cyano-4-fluorophenoxy)methyl]-5-fluoropyrimidin-4-yl}oxy)-2-methylpiperidin-1-yl]methyl}-1-{[(2S)-oxetan-2-yl]methyl}-1H-1,3-benzodiazole-6-carboxylic acid]: the EC50 was less than 50 nM.

Turning to `C[C@H]1C[C@@H](Oc2nc(COc3ccc(C#N)cc3F)ncc2F)CCN1Cc1nc2ccc(C(=O)O)cc2n1C[C@@H]1CCO1` [Compound 493, 2-{[(2S,4S)-4-({2-[(4-cyano-2-fluorophenoxy)methyl]-5-fluoropyrimidin-4-yl}oxy)-2-methylpiperidin-1-yl]methyl}-1-{[(2S)-oxetan-2-yl]methyl}-1H-1,3-benzodiazole-6-carboxylic acid], the EC50 is less than 50 nM.

Regarding `O=C(O)c1cc(F)c2nc(CN3CCC(Oc4ccnc(COc5cc(F)c(F)cc5F)n4)CC3)n(C[C@@H]3CCO3)c2c1` [Compound 494, 4-fluoro-1-{[(2S)-oxetan-2-yl]methyl}-2-{[4-({2-[(2,4,5-trifluorophenoxy)methyl]pyrimidin-4-yl}oxy)piperidin-1-yl]methyl}-1H-1,3-benzodiazole-6-carboxylic acid], the EC50 was less than 50 nM.

On to `O=C(O)c1ccc2nc(CN3CCC(Oc4ccnc(COc5cc(F)c(F)cc5F)n4)CC3)n(C[C@@H]3CCO3)c2c1` [Compound 495, 1-{[(2S)-oxetan-2-yl]methyl}-2-{[4-({2-[(2,4,5-trifluorophenoxy)methyl]pyrimidin-4-yl}oxy)piperidin-1-yl]methyl}-1H-1,3-benzodiazole-6-carboxylic acid], for which the EC50 was less than 50 nM.

As for `O=C(O)c1cc(F)c2nc(CN3CCC(Oc4ccnc(COc5ccc(F)cc5F)c4)CC3)n(C[C@@H]3CCO3)c2c1` [Compound 496, 2-{[4-({2-[(2,4-difluorophenoxy)methyl]pyridin-4-yl}oxy)piperidin-1-yl]methyl}-4-fluoro-1-{[(2S)-oxetan-2-yl]methyl}-1H-1,3-benzodiazole-6-carboxylic acid], the EC50 was less than 50 nM.

As to `C[C@H]1C[C@@H](Oc2ccnc(COc3ccc(F)cc3F)c2)CCN1Cc1nc2ccc(C(=O)O)cc2n1C[C@@H]1CCO1` [Compound 497, 2-{[(2S,4S)-4-({2-[(2,4-difluorophenoxy)methyl]pyridin-4-yl}oxy)-2-methylpiperidin-1-yl]methyl}-1-{[(2S)-oxetan-2-yl]methyl}-1H-1,3-benzodiazole-6-carboxylic acid], the EC50 was less than 50 nM.

For the molecule `Cc1cc(C(=O)O)cc2c1nc(CN1CCC(Oc3ccnc(COc4ccc(C#N)cc4F)c3)CC1)n2C[C@@H]1CCO1` [Compound 499, 2-{[4-({2-[(4-cyano-2-fluorophenoxy)methyl]pyridin-4-yl}oxy)piperidin-1-yl]methyl}-4-methyl-1-{[(2S)-oxetan-2-yl]methyl}-1H-1,3-benzodiazole-6-carboxylic acid], the half-maximal effective concentration (EC50) is less than 50 nM.

Turning to `Cc1cc(C(=O)O)cc2c1nc(CN1CCC(Oc3ccnc(COc4ccc(F)cc4C#N)n3)CC1)n2C[C@@H]1CCO1` [Compound 500, 2-{[4-({2-[(2-cyano-4-fluorophenoxy)methyl]pyrimidin-4-yl}oxy)piperidin-1-yl]methyl}-4-methyl-1-{[(2S)-oxetan-2-yl]methyl}-1H-1,3-benzodiazole-6-carboxylic acid], the EC50 was less than 50 nM.

With `C[C@H]1C[C@@H](Oc2ccnc(COc3ccc(C#N)cc3F)c2)CCN1Cc1nc2c(F)cc(C(=O)O)cc2n1C[C@@H]1CCO1` [Compound 501, 2-{[(2S,4S)-4-({2-[(4-cyano-2-fluorophenoxy)methyl]pyridin-4-yl}oxy)-2-methylpiperidin-1-yl]methyl}-4-fluoro-1-{[(2S)-oxetan-2-yl]methyl}-1H-1,3-benzodiazole-6-carboxylic acid], the EC50 is less than 50 nM.

On to `N#Cc1cc(F)c(OCc2nccc(OC3CCN(Cc4nc5c(F)cc(C(=O)O)cc5n4C[C@@H]4CCO4)CC3)n2)cc1F` [Compound 502, 2-{[4-({2-[(4-cyano-2,5-difluorophenoxy)methyl]pyrimidin-4-yl}oxy)piperidin-1-yl]methyl}-4-fluoro-1-{[(2S)-oxetan-2-yl]methyl}-1H-1,3-benzodiazole-6-carboxylic acid], for which the EC50 was less than 50 nM.

Regarding `Cc1cc(C(=O)O)cc2c1nc(CN1CC[C@H](Oc3ccnc(COc4ccc(C#N)cc4F)c3)C[C@@H]1C)n2C[C@@H]1CCO1` [Compound 503, 2-{[(2S,4S)-4-({2-[(4-cyano-2-fluorophenoxy)methyl]pyridin-4-yl}oxy)-2-methylpiperidin-1-yl]methyl}-4-methyl-1-{[(2S)-oxetan-2-yl]methyl}-1H-1,3-benzodiazole-6-carboxylic acid], the EC50 was less than 50 nM.

Take `N#Cc1cc(F)c(F)cc1OCc1nccc(OC2CCN(Cc3nc4ccc(C(=O)O)cc4n3C[C@@H]3CCO3)CC2)n1` [Compound 504, 2-{[4-({2-[(2-cyano-4,5-difluorophenoxy)methyl]pyrimidin-4-yl}oxy)piperidin-1-yl]methyl}-1-{[(2S)-oxetan-2-yl]methyl}-1H-1,3-benzodiazole-6-carboxylic acid]: the EC50 is less than 50 nM.

Take `N#Cc1cc(F)c(F)cc1OCc1nccc(OC2CCN(Cc3nc4c(F)cc(C(=O)O)cc4n3C[C@@H]3CCO3)CC2)n1` [Compound 505, 2-{[4-({2-[(2-cyano-4,5-difluorophenoxy)methyl]pyrimidin-4-yl}oxy)piperidin-1-yl]methyl}-4-fluoro-1-{[(2S)-oxetan-2-yl]methyl}-1H-1,3-benzodiazole-6-carboxylic acid]: the EC50 was less than 50 nM.

For `N#Cc1ccc(OCc2nccc(O[C@@H]3C[C@@H]4C[C@H]3CN4Cc3nc4ccc(C(=O)O)cc4n3C[C@@H]3CCO3)n2)c(F)c1` [Compound 506, 2-{[(1S,4S,5R)-5-({2-[(4-cyano-2-fluorophenoxy)methyl]pyrimidin-4-yl}oxy)-2-azabicyclo[2.2.1]heptan-2-yl]methyl}-1-{[(2S)-oxetan-2-yl]methyl}-1H-1,3-benzodiazole-6-carboxylic acid], the EC50 is less than 50 nM.

With `N#Cc1ccc(OCc2nccc(O[C@H]3C[C@H]4C[C@@H]3CN4Cc3nc4ccc(C(=O)O)cc4n3C[C@@H]3CCO3)n2)c(F)c1` [Compound 507, 2-{[(1R,4R,5S)-5-({2-[(4-cyano-2-fluorophenoxy)methyl]pyrimidin-4-yl}oxy)-2-azabicyclo[2.2.1]heptan-2-yl]methyl}-1-{[(2S)-oxetan-2-yl]methyl}-1H-1,3-benzodiazole-6-carboxylic acid], the EC50 was less than 50 nM.

With `N#Cc1cc(C2CC2)ccc1OCc1nccc(OC2CCN(Cc3nc4c(F)cc(C(=O)O)cc4n3C[C@@H]3CCO3)CC2)n1` [Compound 508, (S)-2-((4-((2-((2-cyano-4-cyclopropylphenoxy)methyl)pyrimidin-4-yl)oxy)piperidin-1-yl)methyl)-4-fluoro-1-(oxetan-2-ylmethyl)-1H-benzo[d]imidazole-6-carboxylic acid], the EC50 is less than 50 nM.

Regarding `C[C@H]1C[C@@H](Oc2ccnc(COc3ccc(C4CC4)cc3C#N)n2)CCN1Cc1nc2c(F)cc(C(=O)O)cc2n1C[C@@H]1CCO1` [Compound 509, 2-(((2S,4S)-4-((2-((2-cyano-4-cyclopropylphenoxy)methyl)pyrimidin-4-yl)oxy)-2-methylpiperidin-1-yl)methyl)-4-fluoro-1-(((S)-oxetan-2-yl)methyl)-1H-benzo[d]imidazole-6-carboxylic acid], the concentration giving a half-maximal response (EC50) is less than 50 nM.

Consider `C[C@H]1C[C@@H](Oc2ccnc(COc3ccc(C4CC4)cc3C#N)n2)CCN1Cc1nc2ccc(C(=O)O)cc2n1C[C@@H]1CCO1` [Compound 510, 2-(((2S,4S)-4-((2-((2-cyano-4-cyclopropylphenoxy)methyl)pyrimidin-4-yl)oxy)-2-methylpiperidin-1-yl)methyl)-1-(((S)-oxetan-2-yl)methyl)-1H-benzo[d]imidazole-6-carboxylic acid], for which the EC50 is less than 50 nM.
